Reference: US12036226B2, “Methods of treating subjects having diabetes with chronic kidney disease” (Poxel SA, priority 2018, dated 2024)

Test system: acute renal failure (ARF) rat model
Details: for plasma glucose: normal rats, 180 minutes, imeglimin and metformin 100 mg/h/kg, phenformin 50 mg/h/kg i.v.
Protocol: The creatinine level, correlated with the degree of the renal function failure, was tested for each rat 7 days after the first injection of gentamicin. […] The creatinine level was determined on the Monarch Chemistry Systems using the IL Test creatinine in rat plasma samples. This monochromatic analysis is based on the formation of a red colored complex between creatinine and picric acid under alkaline conditions.

SMILES	plasma glucose	effect on plasma [HCO3−] (rat, in vivo)	effect on plasma lactate (rat, in vivo)	effect on plasma lactate level (rat, in vivo)	lactic acidosis (rat, in vivo)	plasma H+ concentration / metabolic acidosis signs (rat, in vivo)	plasma accumulation (rat, in vivo)	plasma glucose after sharp fall (rat, in vivo)
CN(C)C(=N)N=C(N)N [metformin]	4 ± 0.7 mmol/L	significantly decreased plasma concentration of [HCO3^−]	significantly increased plasma lactate	significantly increased lactatemia	induced lactic acidosis	increased significantly plasma H+ concentration	plasma accumulation of metformin and imeglimin was observed	1.9 ± 1 mmol/L
[H]/N=C(/N)N/C(=N/[H])NCCc1ccccc1 [phenformin]	2.9 ± 1 mmol/L	significantly decreased plasma concentration of [HCO3^−]	significantly increased plasma lactate	significantly increased lactatemia	induced lactic acidosis	increased significantly plasma H+ concentration		2.4 ± 1.1 mmol/L
